Experimental data taken from patent publication US7795305B2, “CDDO-compounds and combination therapies thereof” (Board of Regents, The University of Texas System, priority 2000, dated 2010).
pIC50: −log10 of the molar value.

Tests used:
U937 cells = assay: Cell cycle kinetics, proliferating (S+G2M) fraction by flow cytometry; assay type: cell-based, human
Protocol: Cell kinetic and DNA fragmentation studies. The cell cycle kinetics was determined by staining cells with acridine orange for cellular DNA and RNA content followed by flow cytometeric analysis as described. Samples were measured in a FACScan flow cytometer (Becton Dickinson, San Jose, Calif.) using the 488-nm line of a […] argon laser and filter settings for green (530 nm) (DNA) and red (585 nm) (RNA) fluorescence. Ten thousand events were stored in list mode for analysis. The percentage of cells in the “sub G1 peak” defined the proportion of apoptotic cells in the tested populations. […] Cell-cycle kinetics was analyzed using ModFit software (Verity Software House, Inc., Topsham, Me.).
CDDO. The effect of CDDO on the survival of HL-60 and U937 leukemia cell lines is depicted in FIG. 1. A time- and dose-dependent decrease of HL-60 cells: at 48 hours, 10^−8 M, at 72 and 96 hours, 10^−9 M of CDDO reduced cell numbers by 50%. Viability of U937 cells was inhibited at 107 to 1018 at 48 hours. DNA fragmentation was measured to confirm that the cell death induced by CDDO was due to apoptosis on a sub G1 cell population by DNA/RNA flow cytometry (FIG. 2). The percentage of proliferating cells were analyzed by FCM.

[1] = system: Bcl-2 protein in U937 cells; assay: Bcl-2 protein by quantitative flow cytometry; assay type: cell-based, human; conditions: 1 μM, 72 hrs
Protocol: The involvement of the mitochondrial apoptotic pathway in CDDO mediated apoptosis was analyzed in U937 cells.

[2] = system: Bcl-2 in CD34+ cells of primary AML; assay: Bcl-2 expression level in CD34+ cells of primary AML samples; assay type: cell-based, human
NB4 cells = assay: Cell surface Fas/CD95 expression by flow cytometry; assay type: cell-based, human; conditions: 0.5 μM, 48 hours (24.8 in DMSO-treated cells)
Protocol: Immunophenotyping. The PE-conjugated anti-CD11b, FITC-conjugated anti-CD14 monoclonal antibody (mAb) (Becton Dickinson) and PE-conjugated anti-CD95 mAb (PharMingen) were used at a 1/10 dilution. The percentage of positive cells was calculated by subtracting the percentage of cells with a fluorescence intensity greater than the set marker using the isotype control (background) from the percentage of cells with a fluorescence intensity greater than the same marker using the specific antibody.
Mechanisms of CDDO-induced apoptosis in leukemia cell lines and in primary AML samples were also determined. The involvement of the death receptor/Fas pathway was studied in NB4 cells. Treatment with 0.5 μM CDDO induced cell surface Fas/CD95 expression at 48 hours (MFI 34.8 vs 24.8 in DMSO-treated cells and 26 in untreated control). At this concentration, 22.3% of cells were annexin V positive compared with 11.4% in DMSO-controls. At 1 μM, 56.3% of cells were apoptotic. Similarly, 1 μM CDDO induced Fas expression in 7/12 AML CD34+ cells (MFI, 22.3±3.5 in DMSO-controls, 40±4.3 in CDDO-treated CD34+ cells, p<0.01).

PPARα receptor = PPARα receptor (Homo sapiens, UniProt Q07869); assay: Transactivation of PPARα; assay type: cell-based
PPARα receptor, sequence (Q07869 whole entry): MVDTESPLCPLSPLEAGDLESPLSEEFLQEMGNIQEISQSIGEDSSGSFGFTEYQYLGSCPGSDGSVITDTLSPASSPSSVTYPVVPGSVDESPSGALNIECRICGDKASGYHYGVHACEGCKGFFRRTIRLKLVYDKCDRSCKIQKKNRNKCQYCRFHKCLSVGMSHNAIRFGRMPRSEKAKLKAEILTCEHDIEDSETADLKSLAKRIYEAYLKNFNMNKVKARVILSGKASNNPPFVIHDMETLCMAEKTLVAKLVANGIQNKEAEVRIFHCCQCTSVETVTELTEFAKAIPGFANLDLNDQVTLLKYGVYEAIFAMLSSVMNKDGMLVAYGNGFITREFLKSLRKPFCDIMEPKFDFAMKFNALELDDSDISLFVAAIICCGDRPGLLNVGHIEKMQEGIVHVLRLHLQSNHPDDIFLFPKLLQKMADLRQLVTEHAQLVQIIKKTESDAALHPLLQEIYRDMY

HL-60 cells = assay: CDDO-Me plus LG-100268 in HL-60 cells (Table 6); assay type: cell-based, human; design: unit not given here; conditions: 24 hrs; CDDO-Me 0.1 μM, no ligand
Protocol: Finally, the inventors examined if CDDO-Me combined with ATRA would enhance differentiation. HL-60 cells were cultured with of 0.1 μM of CDDO-Me for 72 hrs, alone or in combination with 1 μM ATRA. […] At 48 hrs, 67.4% in CDDO-Me-treated cells and 63.5% in ATRA-treated cells were CD11b+ (compared with 40% in DMSO controls), while 85% of cells were positive when both compounds were given simultaneously. These studies were repeated 3 times and yielded essentially identical results. Next, combined treatment with CDDO-Me and RXR-specific ligand were tested for potentiation of anti-leukemic effects. RXR-specific ligand LG-100268 (Ligand Pharmaceuticals) used at 10, 100 nm and 1 μM enhanced killing of HL-60 cells in a dose-dependent manner (Table 6).

U937 and HL-60 cells = assay: Phi-Phi-Lux cleavage with caspase-3 inhibitor Z-DEVD-fmk pre-treatment; assay type: cell-based, human
Protocol: Detection of active caspases. The cell-permeable fluorogenic substrate Phi-Phi-Lux-G1D2 was administered to monitor caspase activity according to the manufacturer's recommendations (OncoImmunin, Inc, Kensington, Md.). Briefly, 10^6 cells were resuspended in 5 μL of substrate solution and incubated for 1 hour at 37° C. in the dark. After incubation, cells were washed, and the fluorescence emission was determined using the FL-1 channel of a Becton Dickinson FACScan flow cytometer.
CDDO-Me. […] Effects of CDDO-Me on the cleavage of caspase-3 were analyzed utilizing the fluorogenic substrate of caspase-3 Phi-Phi-Lux.

[3] = system: ERK immunoprecipitated from K562 cells; assay: In vitro ERK (MAPK kinase) assay, MBP phosphorylation; assay type: biochemical; conditions: 0.1, 1, and 10 μM
Protocol: In vitro ERK assay. The effect of CDDO or CDDO-Me was determined using an in vitro MAPK kinase assay kit from Upstate Biotechnology (Lake Placid, N.Y.) and ERK1/2 antibody from Santa Cruz Biotechnology (Santa Cruz, Calif.). For each sample, ERK 1/2 was immunoprecipitated from 2×10^7 K562 or 1×10^7 HL60 cells using a specific anti-ERK 1/2 antibody and Protein A agarose (Life Technologies, Rockville, Md.). The ERK-containing agarose pellet was resuspended in Assay Buffer containing an inhibitor cocktail (PKC inhibitor peptide, PKA inhibitor peptide, and Compound R24571) to block possible contaminating non-ERK kinases. Where appropriate, varying concentrations (0.1, 1, and 10 μM) of CDDO or CDDO-Me was added. Dephosphorylated myelin basic protein (MBP; 25 μg) was used as substrate. Phosphorylation of MBP was observed by using an anti-phospho-MBP antibody. […] The amount of ERK2 immunoprecipitated from each sample was determined by using anti-ERK2 antibody.
To determine specific effects of CDDO-Me on ERK activity the inventors used an in vitro MAPK kinase assay kit. ERK was immunoprecipitated from K562 cells since these cells contain the Bcr-Abl kinase and activated ERK present in these cells under basal conditions.

NB4 = assay: Growth inhibition of leukemic cell line; assay type: cell-based, human
Source text: (§1) Suspension culture of leukemic cells.

KG-1 = assay: Growth inhibition of leukemic cell line; assay type: cell-based, human
Source text: as §1

SMILES	proliferating (S+G2M) fraction (U937 cells; 10^−6 M)	proliferating (S+G2M) fraction (U937 cells; 10^−7 M (DMSO-controls 23.3%))	decrease in Bcl-2 protein [1]	primary AML samples with significantly decreased Bcl-2 expression level in CD34+ cells [2]	cell surface Fas/CD95 expression, MFI (NB4 cells)	transactivation of PPARα receptor (PPARα receptor)	Table 6 value: CDDO-Me-induced monocytic differentiation in HL-60 cells (HL-60 cells)	cleavage of Phi-Phi-Lux (U937 and HL-60 cells; CDDO-Me without inhibitor)	cleavage of Phi-Phi-Lux (U937 and HL-60 cells; pre-treatment with 25 μM Z-DEVD-fmk for 1 hour)	MBP phosphorylation by ERK [3]	pIC50 (NB4)	pIC50 (KG-1)
CC1(C)CCC2(C(=O)O)CCC3(C)C(C(=O)C=C4C5(C)C=C(C#N)C(=O)C(C)(C)C5CCC43C)C2C1 (stereo not drawn) [CDDO, 2-cyano-3,12-dioxoolen-1,9-dien-28-oic acid]	5.6%	14.9%	> 40%	9 of 18	34.8	did not transactivate						
COC(=O)[C@]12CCC(C)(C)C[C@H]1[C@H]1C(=O)C=C3[C@@]4(C)C=C(C#N)C(=O)C(C)(C)[C@@H]4CC[C@@]3(C)[C@]1(C)CC2 [CDDO-Me]							22.4	15.1%	2.7%	inhibited MBP phosphorylation in a dose-dependent manner	6.57	6.40
